Data reported in publication PMC6562844, “A Basic Study of Photodynamic Therapy with Glucose-Conjugated Chlorin e6 Using Mammary Carcinoma Xenografts” (Cancers, 2019).

Experiments:
SNP cells = experiment: Kinetics experiment to assess apoptosis (IncuCyte Annexin V live-cell analysis); type: cell-based, canine; settings: 5 J/cm^2
Description: SNP cells were seeded at a density of (1–2) × 10^4 cells/well in 96-well plates and incubated for 24 h. The cells were then incubated with various concentrations of G-Ce6 (0, 0.064, 0.32, 1.6, or 8.0 μg/mL) for 24 h at 37 °C. After washing with fresh media, the cells were irradiated with 650-nm laser light (10 mW/cm^2, 5 J/cm^2) emitted by a semiconductor laser, using an optical fiber with a microlens delivery attachment. The cells were then stained with IncuCyte® Annexin V (Essen BioScience Inc., Ann Arbor, MI, USA) immediately following PDT, and incubated in a 5% CO2 atmosphere at 37 °C for 24 h. Images were automatically captured every 1 h for 24 h in phase-contrast and fluorescence modes using the IncuCyte® S3 system; phase contrast and green-phase images were obtained from the system. The total green object integrated intensity (green calibrated unit (GCU) × μm²/image) in an image was determined by object counting with IncuCyte® S3 Software according to the manufacturer’s protocol. In the present study, object counting is defined as the total sum of the intensity of Annexin V Green fluorescence in the image.

SNP tumors [1] = experiment: Intratumoral localization in SNP tumors; type: in vivo, NOD/ShiJic-scidJcl mice; settings: 10 mg/kg i.v.
Description: (§1) Six-week-old female NOD/ShiJic-scidJcl mice (CLEA Japan, Tokyo, Japan) were maintained in isolators under specific pathogen-free conditions. All SCID mice were housed and handled under clean conditions using a Jic rack (Jic Co., Kanagawa, Japan), sterilized water, cages, beddings, and food (CL-2; CLEA Japan, Tokyo, Japan). Food and water were given ad libitum. SNP cells were inoculated subcutaneously in the shaved lower dorsum of mice at a density of 1 × 10^6 cells in 0.1 mL phosphate buffered salts (Nacalai Tesque Inc., Kyoto, Japan) per mouse using a 26-gauge syringe. The treatments were initiated when the average tumor volume reached about 100 mm^3 in tumor model. The use of animals and the procedures employed in this study were approved by the Animal Research Committee of Tottori University (project number: 15-T-48).
To determine the intratumoral localization of G-Ce6, tumors were excised either 5 min or 3 h after G-Ce6 (10 mg/kg, i.v.) administration. Samples were immediately mounted in Tissue-Tek® O.C.T. compound (Sakura® Finetek., Tokyo, Japan) and snap-frozen in dry ice with acetone. Cryostat cross sections (10-μm slices) were taken from the center of each tumor. Each section was examined using the all-in-one fluorescence microscope with a filter (excitation, 405 nm; emission, 640 nm).

SNP tumors [2] = experiment: Tumor response to PDT in SNP tumor-bearing mice; type: in vivo, NOD/ShiJic-scidJcl mice; settings: 10 mg/kg i.v.; for Tumor regrowth delay vs control group: 677-nm, 100 J/cm^2, p < 0.05
Description: as §1
We examined the following two experimental groups: (i) a 3-h-interval PDT group (G-Ce6 administered 3 h before laser irradiation) and (ii) a 5-min-interval PDT group (G-Ce6 administered 5 min before laser irradiation). Tumor-bearing mice were intravenously administered approximately 0.1 mL of G-Ce6 stock solution to achieve a dose of 10 mg/kg body weight; they were irradiated with 677-nm laser light emitted by a diode laser (Osada Electric Co., Ltd., Tokyo, Japan). Light was delivered to the mice through a quartz fiber fitted with a microlens and expanded onto the tumor at a 2–4 mm skin margin. The tumors were exposed at a fluence rate of 250 mW/cm^2, at a light dose of 100 J/cm^2.
The resulting treatment effect was assayed by changes in tumor volume. The tumor size was regularly measured after PDT using a caliper. Tumor volume was calculated using the following formula: tumor volume (V) = (a × b × c) × π/6, where a, b, and c are three orthogonal diameters of the tumor. The experiment was terminated on day 25. All mice were sacrificed via cervical dislocation, and the tumors were harvested.

SNP tumors [3] = experiment: Histological examination of SNP tumors after PDT (H&E); type: in vivo, NOD/ShiJic-scidJcl mice
Description: To examine PDT-induced histological changes in the tumor tissue and surrounding normal tissue, animals were sacrificed via cervical dislocation, and the tumors were harvested at 24 h after PDT. The tumor tissues were fixed in 10% buffered formalin and embedded in paraffin. Tumor sections were cut at a thickness of 4 μm, stained with hematoxylin & eosin (H&E), and examined under a light microscope (Olympus BX51).

[4] = General physical examination and blood analysis in dogs; type: in vivo, healthy beagle dogs; settings: for ALP / ALT / AST / BUN / Cre / GGT / Glu: Post (1 day after administration)
Description: The animal protocol using healthy beagle dogs was approved by the Animal Research Committee of the Tottori University (project number: 17-T-3). For the pharmacokinetic crossover study, 6, 3, and 1 healthy beagle dogs were intravenously administered G-Ce6 at a dose of 2, 5, and 20 mg/kg, respectively. The ages of the healthy dogs (3 males and 3 females) ranged from 6–12 years old (mean and median, 8.6 and 7.5 years, respectively); the dogs weighed 8.7–11.2 kg (mean and median, 10.2 and 10.5 kg, respectively).
A general physical examination was performed on all dogs before and after PDT. Serum biochemistry analysis of glucose (Glu), AST, ALT, alkaline phosphatase (ALP), γ-glutamyltranspeptidase (GGT), blood urea nitrogen, and creatinine (Cre) was also performed for all dogs immediately before and 1 day after G-Ce6 administration.

SMILES: CCC1=C(C)c2cc3[nH]c(cc4nc(c(CC(=O)OC)c5[nH]c(cc1n2)c(C)c5C(=O)OC)[C@@H](CCC(=O)OC)[C@@H]4C)c(C)c3C(C)OCCCS[C@@H]1O[C@H](CO)[C@@H](O)[C@H](O)[C@H]1O (stereo partly drawn) [G-Ce6, Methyl (7S,8S)-18-ethyl-5-(2-methoxy-2-oxoethyl)-7-(3-methoxy-3-oxopropyl)-2,8,12,17-tetramethyl-13-(1-(3-(((2S,3R,4S,5S,6R)-3,4,5-trihydroxy-6-(hydroxymethyl)tetrahydro-2H-pyran-2-yl)thio)propoxy)ethyl)-7H,8H-porphyrin-3-carboxylate]
- Time after PDT at which GCU began to increase (SNP cells; 0.32 μg/mL): 1 to 3 h
- Time after PDT at which GCU reached a maximum (SNP cells; 0.32 μg/mL): 10 h
- Time after PDT at which apoptosis (GCU) reached a plateau (SNP cells; 8 μg/mL): approximately 4 h
- Total green object integrated intensity (GCU × μm²/image) after PDT (SNP cells; <0.064 μg/mL): did not increase
- Intratumoral localization of fluorescence (SNP tumors [1]; 5 min after administration): within the tumor blood vessel
- Intratumoral localization of fluorescence (SNP tumors [1]; 3 h post administration): in both tumor interstitial tissue and tumor cells
- Mean tumor weight on day 25 (SNP tumors [2]; 3-h-interval PDT): 210.3 ± 85.0 mg
- Tumor regrowth delay vs control group (SNP tumors [2]; 3-h-interval PDT): significant tumor regrowth delay
- Mean tumor weight on day 25 (SNP tumors [2]; 5-min-interval PDT): 34.0 ± 12.7 mg
- Tumor regrowth delay vs control group (SNP tumors [2]; 5-min-interval PDT): significant tumor regrowth delay
- Histological findings 24 h after PDT (SNP tumors [3]; 3-h-interval PDT): cells at the superficial tumor tissue appeared necrotic, whereas deep-seated tumor cells appeared intact
- Histological findings 24 h after PDT (SNP tumors [3]; 5-min-interval PDT): widespread tumor cells appeared necrotic
- Changes in serum biochemical parameters ([4]; 2 mg/kg i.v.): No significant changes
- Major skin photosensitivity or acute toxicity (vomiting, diarrhea, salivation) ([4]; 2 mg/kg i.v.): no evidence
- Tolerability in safety examination ([4]; 2 mg/kg i.v.): well tolerated
- ALP ([4]; 2 mg/kg i.v.): 154 ± 59.69 U/L
- ALT ([4]; 2 mg/kg i.v.): 40 ± 7.17 U/L
- AST ([4]; 2 mg/kg i.v.): 32 ± 4.72 U/L
- BUN ([4]; 2 mg/kg i.v.): 15.8 ± 4.20 mg/dL
- Cre ([4]; 2 mg/kg i.v.): 0.5 ± 0.09 mg/dL
- GGT ([4]; 2 mg/kg i.v.): 1.5 ± 2.35 U/L
- Glu ([4]; 2 mg/kg i.v.): 99.5 ± 17.85 mg/dL
- Changes in serum biochemical parameters ([4]; 5 mg/kg i.v.): no significant changes
- Side effects during administration ([4]; 5 mg/kg i.v.): Nausea was observed
- ALP ([4]; 5 mg/kg i.v.): 141.0 ± 47.04 U/L
- ALT ([4]; 5 mg/kg i.v.): 59.0 ± 9.52 U/L
- AST ([4]; 5 mg/kg i.v.): 31.0 ± 10.47 U/L
- BUN ([4]; 5 mg/kg i.v.): 13.4 ± 5.05 mg/dL
- Cre ([4]; 5 mg/kg i.v.): 0.5 ± 0.13 mg/dL
- GGT ([4]; 5 mg/kg i.v.): 5.0 ± 1.63 U/L
- Glu ([4]; 5 mg/kg i.v.): 96.0 ± 10.88 mg/dL
- Levels of AST and ALT in blood ([4]; 20 mg/kg i.v.): Increases
- Side effects during administration ([4]; 20 mg/kg i.v.): vomiting and weakness
- ALP ([4]; 20 mg/kg i.v.): 134.0 U/L
- ALT ([4]; 20 mg/kg i.v.): 135.0 U/L
- AST ([4]; 20 mg/kg i.v.): 55.0 U/L
- BUN ([4]; 20 mg/kg i.v.): 8.6 mg/dL
- Cre ([4]; 20 mg/kg i.v.): 0.5 mg/dL
- GGT ([4]; 20 mg/kg i.v.): 14.0 U/L
- Glu ([4]; 20 mg/kg i.v.): 107.0 mg/dL
- Toxic dose level ([4]; i.v.): 20 mg/kg
- Optimal dose, which did not cause any adverse effects ([4]; i.v., based on pharmacokinetics and safety examination): 2 mg/kg
